This experiment has as its target T1, DPP4 (Homo sapiens, UniProt P27487).
T1 construct: from tissue; host or cells: human heparinized plasma
As to the kind of experiment: DPP4 activity by MSIA: substrate conversion in human heparinized plasma spiked with recombinant DPP4 substrate peptide and inhibitor. The class given is biochemical. As to the method: MSIA is a method by which sample purification and preparation occurs essentially simultaneously with sample aliquot and delivery. More specifically, a pipette tip, into which a specific volume of a clinical sample, human or animal, is drawn, contains an affinity reagent for selective preparation and immuno-affinity purification of the sample for subsequent direct mass spectrometer analysis; i.e., no intervening purification steps are performed. As shown schematically in FIG. 1, a clinical sample is drawn into a pipette tip containing an exogenous synthetic peptide substrate. The clinical sample and the exogenous peptide substrate are incubated to effect binding of the exogenous peptide substrate to a specific enzyme that is present in the clinical sample. After washes with buffer and water, the eluant is used for subsequent MS analysis. In this elution process, the eluate is dispensed into a microtiter plate for LC/MS application, directly into a LC/MS, or onto a target for MS insertion. Regardless of the MS technique applied, the eluant contained the exogenous peptide substrates, both the parent exogenous peptide substrate and the cleaved degraded product that was produced based on the activity of the enzyme contained in the clinical sample.
An exogenous synthetic peptide that is a substrate for the enzyme to be assessed is introduced into a clinical specimen, e.g., blood, urine, plasma, cerebrospinal fluid, lymphatic fluid, etc., i.e., the clinical sample is spiked or doped with the exogenous synthetic peptide substrate. For example, if the enzyme to be assessed is DPP4, the sample may be spiked with an exogenous peptide substrate for DPP4, e.g., recombinant GLP1, natriuretic peptide, etc. The exogenous synthetic peptide substrate that is added to the clinical sample in vitro is termed the parent substrate. The sample is then analyzed by MS, or is incubated for a set period of time before MS analysis. Incubation may be for any desired time period, and at any desired temperature, e.g., ambient temperature 19° C.-22° C., or at another desirable temperature, e.g., 37° C. Enzyme that is present in the clinical sample proteolytically cleaves the exogenous parent synthetic peptide substrate into a smaller fragment. The exogenous synthetic peptide substrates, both the parent (unreacted) and the cleaved (reacted) degraded product, are the targets that are monitored by subsequent MSIA. The method may be summarized as follows:
In one embodiment, a MS measurement of the exogenous synthetic peptide substrate in the sample (step (b)) is performed at a single time point, e.g., 15 min. In one embodiment, a MS measurement of the exogenous synthetic peptide substrate in the sample (step (b)) is performed over a time course, e.g., from 100% substrate to decreased or essentially depleted substrate. The time course may be performed utilizing sequential aliquot removal from the same clinical sample, or may be performed on multiple samples assayed in parallel. In all embodiments, the clinical samples are analyzed using MSIA, which selectively targets the substrate peptide, both reacted and non-reacted. MS detection allows for differentiation of the two forms, i.e., the reacted (cleaved, degraded) form of the substrate peptide, and unreacted parent form of the substrate peptide. It thus provides a method of analyzing the activity of an enzyme in a biological system.
In embodiments, clinical samples were treated with various inhibitors to determine the modulation, if any, of the endogenous enzyme activity. For example, if DPP4 was the enzyme whose activity was to be assessed, inhibitors were used that were known or speculated to inhibit DPP4 activity. Concentration studies were also performed (data not shown).
The following results were obtained with the leupeptin inhibitor:
The following results were obtained with the AEBSF inhibitor: […]

The mark [1] stands for this setting: Human Plasma 1, 1 mM leupeptin, 0 min.
Where [2] appears, read: Human Plasma 1, 1 mM leupeptin, 15 min.
The mark [3] stands for this setting: Human Plasma 1, 1 mM leupeptin, 30 min.
[4] abbreviates: Human Plasma 1, 1 mM leupeptin, 45 min.
The mark [5] stands for this setting: Human Plasma 1, 1 mM leupeptin, 60 min.
Setting [6] is: Human Plasma 1, 1 mM leupeptin, 75 min.
[7] abbreviates: Human Plasma 1, 5 mM AEBSF, 0 min.
Setting [8] is: Human Plasma 1, 5 mM AEBSF, 15 min.
Setting [9] is: Human Plasma 1, 5 mM AEBSF, 30 min.
Where [10] appears, read: Human Plasma 1, 5 mM AEBSF, 45 min.
The mark [11] stands for this setting: Human Plasma 1, 5 mM AEBSF, 60 min.
The mark [12] stands for this setting: Human Plasma 1, 5 mM AEBSF, 75 min.

T1 sequence (P27487 39-766 limits assumed): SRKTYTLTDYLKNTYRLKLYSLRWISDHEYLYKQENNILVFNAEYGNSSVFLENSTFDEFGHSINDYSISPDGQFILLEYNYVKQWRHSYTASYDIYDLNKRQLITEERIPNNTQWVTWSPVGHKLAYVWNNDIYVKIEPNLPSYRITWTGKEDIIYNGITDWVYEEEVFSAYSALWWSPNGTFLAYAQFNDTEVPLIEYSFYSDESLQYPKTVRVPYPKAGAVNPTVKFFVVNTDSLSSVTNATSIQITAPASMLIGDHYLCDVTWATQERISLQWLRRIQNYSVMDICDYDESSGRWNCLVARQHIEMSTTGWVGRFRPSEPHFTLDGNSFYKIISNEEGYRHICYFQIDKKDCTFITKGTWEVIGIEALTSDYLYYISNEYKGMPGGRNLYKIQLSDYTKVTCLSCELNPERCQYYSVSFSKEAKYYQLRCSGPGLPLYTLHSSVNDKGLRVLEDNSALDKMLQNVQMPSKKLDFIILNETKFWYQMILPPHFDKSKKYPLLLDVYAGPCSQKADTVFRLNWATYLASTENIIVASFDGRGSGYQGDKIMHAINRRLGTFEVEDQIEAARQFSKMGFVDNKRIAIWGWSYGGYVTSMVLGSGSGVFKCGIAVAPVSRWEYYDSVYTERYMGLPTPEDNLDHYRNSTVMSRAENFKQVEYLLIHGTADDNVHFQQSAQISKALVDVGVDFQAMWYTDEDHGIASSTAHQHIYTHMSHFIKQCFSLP

For `CC(=O)N[C@@H](CC(C)C)C(=O)N[C@@H](CC(C)C)C(=O)N[C@H](C=O)CCCNC(=N)N` [leupeptin], the “% Product” value reads like this: under setting [1], 0%; under setting [2], 52.6%; under setting [3], 77.8%; under setting [4], 85.1%; under setting [5], 87.9%; under setting [6], 90.2%. Further, the “% Substrate” value is, setting by setting: under setting [1], 100%; under setting [2], 47.4%; under setting [3], 22.2%; under setting [4], 14.9%; under setting [5], 12.1%; under setting [6], 9.8%.
`NCCc1ccc(S(=O)(=O)F)cc1` [AEBSF]: the “% Product” value is recorded as 0% under setting [7]; 11.7% under setting [8]; 17.4% under setting [9]; 22.2% under setting [10]; 24.3% under setting [11]; 24.8% under setting [12]. For the same molecule, the “% Substrate” value worked out at 100% under setting [7]; 88.3% under setting [8]; 82.6% under setting [9]; 77.8% under setting [10]; 75.7% under setting [11]; 75.2% under setting [12].

For the origin of these results see US20140273008A1, “METHODS TO ASSESS ENZYME ACTIVITY USING MASS SPECTROMETRIC IMMUNOASSAY” (Molecular BioProducts, Inc., priority 2013, published 2014).
